# Data: patent US5770575A, “Nipecotic acid derivatives as antithrombotic compounds” (Ortho Pharmaceutical Corporation, priority 1995, dated 1998)
# “Also recorded” adds a separate entry of the source.
# Columns and labels:
# [1] = design: species or system mongrel dogs; settings: dog, in vivo, iv
# Method: (§1) Arterial blood samples (5-9 ml) were withdrawn into tubes containing 3.8% sodium citrate to prepare platelet rich plasma (PRP) and to determine effects on coagulation parameters: prothrombin time (PT) and activated partial thromboplastin time (APTT). Separate blood samples (1.5 ml) were withdrawn in EDTA to determine hematocrit and cell counts (platelets, RBC's and white cells). Template bleeding times were obtained from the buccal surface using a symplate incision devise and Whatman filter paper.
# (§2) Aggregation of PRP was performed using a BioData aggregometer. Aggregation of whole blood used a Chronolog impedance aggregometer. PT and APTT were determined on either a BioData or ACL 3000+ coagulation analyser. Cells were counted with a Sysmex K-1000.
# (§3) Compound 17 was solubilized in a small volume of dimethylformamide (DMF) and diluted with saline to a final concentration of 10% DMF. Compound 17 was administered by the intravenous route with a Harvard infusion pump. Doses of 0.3, 1, 3, and 10 mg/kg were given in a cumulative fashion to each animal. Each dose was administered over a 15 min interval at a constant rate of 0.33 ml/min. Data were obtained after each dose and 30 and 60 min following the end of drug administration.
# gel-filtered platelets = experiment: In vitro inhibition of thrombin-induced gel-filtered platelet aggregation assay; format: cell-based; settings: *Indicates IC50, read-out: Pl. Aggr. IC50
# Method: IN VITRO INHIBITION OF THROMBIN-INDUCED GEL-FILTERED PLATELET AGGREGATION ASSAY.
# The percentage of platelet aggregation is calculated as an increase in light transmission of compound treated platelet concentrate vs. control treated platelet concentrate. Blood is obtained from drug free, normal donors into tubes containing 0.13M sodium citrate. Platelet rich plasma (PRP) is collected by centrifugation of whole blood at 200×g for 10 min at 25° C. The PRP (5 mL) is gel filtered through Sepharose 2B (bed volume 50 mL), and the platelet count is adjusted to 2×10^7platelets per sample. The following constituents are added to a siliconized cuvette: concentrated platelet filtrate and Tyrode's buffer (0.1 4M NaCl, 0.0027M KCl, 0.01 2M NaHCO3, 0.76 mM Na2 HPO4, 0.0055M glucose, 2 mg/mL BSA and 5.0 mM HEPES @ pH 7.4) in an amount equal to 350 μl, 50 μl of 20 mM calcium and 50 μl of the test compound. Aggregation is monitored in a BIODATA aggregometerforthe 3 min following the addition of agonist (thrombin 50 μl of 1 unit/mL).
# platelet aggregation = experiment: Ex vivo dog study: platelet aggregation and ATP release in whole blood and PRP; design: species or system mongrel dogs
# Method: Adult mongrel dogs (8-13 kg) were anesthetized with sodium pentobarbital (35 mg/kg, i.v.) and artificially respired. Arterial blood pressure and heart rate were measured using a Millar catheter-tip pressure transducer inserted in a femoral artery. Another Millar transducer was placed in the left ventricle (LV) via a carotid artery to measure LV end diastolic pressure and indices of myocardial contractility. A lead II electrocardiogram was recorded from limb electrodes. Catheters were placed in a femoral artery and vein to sample blood and infuse drugs, respectively. Responses were continuously monitored using a Modular Instruments data aquisition system.
# as §1, §2, §3
# GPIIb/IIIa = target: T1, GPIIb/IIIa (Homo sapiens, UniProt P05106+P08514); experiment: In vitro solid phase purified glycoprotein IIb/IIIa binding assay (biotinylated fibrinogen); settings: Table I
# T1 sequence (P08514 32-887 limits assumed): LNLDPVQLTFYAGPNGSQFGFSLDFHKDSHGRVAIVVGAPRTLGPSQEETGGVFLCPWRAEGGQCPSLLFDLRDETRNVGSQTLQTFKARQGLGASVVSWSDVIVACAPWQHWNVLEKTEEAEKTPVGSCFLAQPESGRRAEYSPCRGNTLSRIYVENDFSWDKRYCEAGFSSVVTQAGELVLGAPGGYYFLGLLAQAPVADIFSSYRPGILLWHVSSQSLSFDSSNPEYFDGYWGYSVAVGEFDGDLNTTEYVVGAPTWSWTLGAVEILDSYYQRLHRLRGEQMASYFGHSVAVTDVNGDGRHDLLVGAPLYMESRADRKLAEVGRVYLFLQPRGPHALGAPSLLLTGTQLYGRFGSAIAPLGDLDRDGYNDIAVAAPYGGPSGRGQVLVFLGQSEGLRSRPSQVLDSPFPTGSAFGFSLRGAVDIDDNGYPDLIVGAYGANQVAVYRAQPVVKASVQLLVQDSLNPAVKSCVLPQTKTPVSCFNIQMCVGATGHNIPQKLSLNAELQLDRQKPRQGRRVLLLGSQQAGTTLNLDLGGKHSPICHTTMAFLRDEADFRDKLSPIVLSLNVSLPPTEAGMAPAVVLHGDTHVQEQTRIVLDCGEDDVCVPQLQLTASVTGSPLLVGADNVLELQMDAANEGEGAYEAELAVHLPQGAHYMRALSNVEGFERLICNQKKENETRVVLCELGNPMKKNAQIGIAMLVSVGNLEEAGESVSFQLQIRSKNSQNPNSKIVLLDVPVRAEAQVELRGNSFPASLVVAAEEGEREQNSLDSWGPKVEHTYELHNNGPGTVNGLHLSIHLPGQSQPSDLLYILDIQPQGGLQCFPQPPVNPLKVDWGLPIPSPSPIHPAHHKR
# T1 sequence (P05106 27-788): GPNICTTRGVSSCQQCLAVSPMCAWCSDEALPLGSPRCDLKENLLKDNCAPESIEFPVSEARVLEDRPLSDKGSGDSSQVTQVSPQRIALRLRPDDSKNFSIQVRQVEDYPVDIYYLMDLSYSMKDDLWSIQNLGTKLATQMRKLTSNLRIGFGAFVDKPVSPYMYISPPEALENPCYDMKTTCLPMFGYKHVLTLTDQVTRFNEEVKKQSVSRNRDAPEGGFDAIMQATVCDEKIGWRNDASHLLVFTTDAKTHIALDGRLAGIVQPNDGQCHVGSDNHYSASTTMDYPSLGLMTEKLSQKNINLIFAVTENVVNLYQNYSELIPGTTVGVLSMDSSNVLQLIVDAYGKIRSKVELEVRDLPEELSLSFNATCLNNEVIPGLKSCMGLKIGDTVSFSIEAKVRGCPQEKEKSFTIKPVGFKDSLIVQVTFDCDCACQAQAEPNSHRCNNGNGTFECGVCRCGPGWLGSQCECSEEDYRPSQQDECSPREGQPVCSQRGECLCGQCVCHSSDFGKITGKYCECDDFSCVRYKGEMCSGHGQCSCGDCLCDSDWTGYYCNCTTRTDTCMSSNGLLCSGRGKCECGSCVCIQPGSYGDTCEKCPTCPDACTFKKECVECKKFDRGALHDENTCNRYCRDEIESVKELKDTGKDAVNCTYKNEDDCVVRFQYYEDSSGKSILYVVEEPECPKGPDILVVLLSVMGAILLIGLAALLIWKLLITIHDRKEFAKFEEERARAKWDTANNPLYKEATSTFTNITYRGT
# Text: The compounds of the present invention interrupt binding of fibrinogen to platelet glycoprotein IIb/IIIa (GPIIb/IIIa) and thereby inhibit platelet aggregation. […] Because the final, common pathway in normal platelet aggregation is the binding of fibrinogen to activated, exposed GPIIb/IIIa, inhibition of this binding represents a plausible antithrombotic approach. The receptor is activated by stimuli such as ADP, collagen, and thrombin, exposing binding domains to two different peptide regions of fibrinogen: α-chain Arg-Gly-Asp (RGD) and γ-chain 400-411.
# IN VITRO SOLID PHASE PURIFIED GLYCOPROTEIN IIB/IIIA BINDING ASSAY.
# The plate is covered and incubated overnight at 4° C. The GPIIb/IIa solution is discarded and 150 μl of 5% BSA is added and incubated at RT for 1-3 h. The plate is washed extensively with modified Tyrodes buffer. Biotinylated fibrinogen (25 μl/well) at 2× final concentration is added to the wells that contain the test compounds (25 μl/well) at 2× final concentration. The plate is covered and incubated at RT for 2-4 h. Twenty minutes prior to incubation completion, one drop of Reagent A (Vecta Stain ABC Horse Radish Peroxidase kit, Vector Laboratories, Inc.) and one drop Reagent B are added with mixing to 5 mL modified Tyrodes buffer mix and let stand. The ligand solution is discarded and the plate washed (5×200 μl/well) with modified Tyrodes buffer. Vecta Stain HRP-Biotin-Avidin reagent (50 μl/well, as prepared above) is added and incubated at RT for 15 min. The Vecta Stain solution is discarded and the wells washed (5×200 μl/well) with modified Tyrodes buffer. […] The absorbance is read at 490 nm.
smiles,measurement,setting,value
"O=C(O)CCNC(=O)C1CCCN(C(=O)CCC2CCNCC2)C1 (stereo not drawn) [Compound 17, N-[3-(4-Piperidinepropionyl)]-Nip-β-Ala-OH]",bleeding time at the higher doses,[1],increases in bleeding time at the higher doses
same,coagulation (PT or APTT),[1],No effects on coagulation
same,"platelet, white and RBC counts",[1],unchanged at any dose
same,IC50,gel-filtered platelets,130 nM
same,platelet function began to recover,"platelet aggregation; PRP and whole blood, post treatment",30 to 60 min
same,Gamma thrombin induced aggregation of PRP,"platelet aggregation; PRP, doses of 3.0 mg/kg and above, iv",inhibited at doses of 3.0 mg/kg and above
same,"collagen stimulated platelet aggregation, PRP","platelet aggregation; PRP, marked activity at 0.3 mg/kg iv",marked activity at 0.3 mg/kg
same,duration of drug action / antiaggregatory effect,platelet aggregation; iv,relatively short duration of drug action
same,ex vivo platelet aggregation responses,"platelet aggregation; iv, 0.3-10 mg/kg cumulative",marked inhibition of ex vivo platelet aggregation responses; also recorded: broadly effective inhibitor of platelet aggregation ex vivo
same,collagen stimulated platelet ATP release,"platelet aggregation; whole blood, 10 mg/kg iv",marked inhibition
same,"collagen-stimulated aggregation, whole blood","platelet aggregation; whole blood, doses of 0.3-10 mg/kg iv",inhibited
same,IC50,GPIIb/IIIa,3 nM
